{"source": "patent US5192664A", "about": "“Parathyroid hypertensive factor, antibodies and uses thereof” (Pang; Peter K. T., priority 1990, dated 1993)", "test_system": "Blood Pressure in SHR", "assay": "Feeding of nifedipine and dietary calcium to SHR rats for 8 weeks, mean blood pressure", "assay_type": "in vivo, rat", "settings": "for Blood Pressure in SHR: nifedipine 0 mg/kg food, 8 weeks feeding", "experimental": "Male rats of the SHR strain, obtained from Harlan Sprague-Dawley, 12 weeks old, were divided into groups of 12 or 24, and were fed prepared diets containing 0.2%, 0.4% and 0.8% elemental calcium, respectively. […] Distilled water was available ad lib. Feeding was continued for 8 weeks and the mean blood pressure of each animal was determined at the end of that time.", "data": [{"smiles": "[Ca]", "note": "[Calcium]", "values": [{"measurement": "decrease in blood pressure", "setting": "4 times the amount of ordinary dietary calcium, no nifedipine", "value": "measurable, but small"}, {"measurement": "Blood Pressure in SHR", "setting": "dietary calcium 0.4%", "value": "164 ± 6", "unit": "mm Hg"}, {"measurement": "Blood Pressure in SHR", "setting": "dietary calcium 0.8%", "value": "169 ± 6", "unit": "mm Hg"}]}]}
